ChEMBL document CHEMBL1132268, “Non-thiol 3-aminomethylbenzamide inhibitors of farnesyl-protein transferase” (Bioorg Med Chem Lett, 1999)
Values after ≈ are worked out from the molar mass of the structure shown.

Experiments:
Rat1 [1] = assay: Inhibition of v-Ha-ras (Ras2B) transformed RAT1 cell colony size and number in soft agar assay; format: functional; settings: Rattus norvegicus
Rat1 [2] = assay: Minimal cytotoxic effect (<10%) in RAT1 cell viability assay; format: functional, Rattus norvegicus
Rat1 [3] = assay: Inhibition of v-raf (Raf1a1) transformed RAT1 cell colony size and number in soft agar assay; format: functional; settings: Rattus norvegicus
NIH3T3 = assay: Inhibition of the post-translational prenylation of Ha-Ras protein in cultured NIH3T3 cells in a protein processing assay; format: functional, cell-based; settings: Mus musculus
[4] = target: Geranylgeranyl transferase type I (Homo sapiens, UniProt P49354+P53609); assay: Inhibition of geranylgeranyl transferase I (GGTase-I); format: protein-complex assay
[5] = target: Protein farnesyltransferase (Homo sapiens, UniProt P49354+P49356); assay: Inhibition of [3H]FPP incorporation into recombinant Ha-Ras by bovine brain farnesyltransferase; format: functional, Bos taurus

MIC (Rat1 [1]) | MIC (Rat1 [3]) | IC50 [4] | IC50 [5] | Structure (SMILES) | CTE (Rat1 [2]) | IC50 (NIH3T3)
10 µM (≈ 4.92 µg/mL) | > 10 µM | – | – | COC(=O)[C@H](CCSC)NC(=O)c1cccc(CNCc2cncn2Cc2ccc(C#N)cc2)c1 | 25 µM | –
≤ 1 µM | > 10 µM | – | – | COC(=O)[C@H](CCSC)NC(=O)c1cccc(CN(Cc2ccc(C#N)cc2)Cc2cncn2Cc2ccc(C#N)cc2)c1 | 25 µM | ~5 µM
10 µM (≈ 4.92 µg/mL) | > 10 µM | – | – | COC(=O)[C@H](CCSC)NC(=O)c1cccc(CN(Cc2ccc(C#N)cc2)Cc2c[nH]cn2)c1 | >=50 uM | –
– | – | 6.2 µM | 0.012 µM | CSCC[C@H](NC(=O)c1cccc(CN(Cc2ccc(C#N)cc2)Cc2cnc[nH]2)c1)C(=O)O | – | –
– | – | 17 µM | 0.87 µM | CSCC[C@H](NC(=O)c1cccc(CN(Cc2cnc[nH]2)Cc2cnc[nH]2)c1)C(=O)O | – | –
> 10 µM | > 10 µM | – | – | CCCCN(Cc1cccc(C(=O)N[C@@H](CCSC)C(=O)OC)c1)Cc1cncn1Cc1ccc(C#N)cc1 | 25 µM | –
